These results are taken from US20250206761A1, “HALOINDOLE MACROCYCLIC COMPOUNDS FOR THE TREATMENT OF CANCER” (Hoffmann-La Roche Inc., priority 2022, published 2025).

The structures appear in SMILES notation. Some results are limits rather than exact numbers.

The test system of data set [1] is NCI-H358 (ATCC-CRL5807) cells. Kind of data set: Cell viability assay, G12C (NCI-H358). As to conditions: Homo sapiens; KRAS cell viability, NCI-H358, 72 hrs, Cell Counting Kit-8. It counts as cell-based, human. An outline of the steps:
(§1)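 Seed NCI-H358 5,000/well, AGS and SW620 2,000/well; overnight. Compound, 0.5% DMSO final, 72 hrs. CCK-8 2 hrs, OD450–OD650. IC50: 4-parameter fit.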
On the technique in general: Formazan colour is commonly taken as a measure of viable cells.

The subject of data set [2] is cryopreserved suspension hepatocytes from human. Kind of data set: Human hepatocyte stability assay. It counts as in vitro ADME. The following applies: for Clearance Category: human hepatocytes; for CL_hep (Human): human hepatocytes 1×10^6 cells/mL, 37° C. How it is done:
The hepatocyte stability assay measures the rate of disappearance of a compound from incubations with cryopreserved suspension hepatocytes from human. Positive controls, including Midazolam, Raloxifene and Dextromethorphan, are included in every experiment. Incubations consist of […] tested compound and suspension of human hepatocytes (1×10^6 cells/mL) in supplemented Williams' E Medium with 10% FBS and 0.5% Penicillin-streptomycin. The hepatocyte suspension was incubated with intermittent shaking 900 rpm at 37° C., in a 5% CO2 incubator. The reaction was stopped by adding methanol containing internal standard (2 μM Tolbutamide) at 2, 10, 20, 40, 60 and 120 minutes after compound addition, depletion of the parent compound was monitored by LC-MS/MS analysis.

In data set [3] the test system is AGS (ATCC-CRL-1739) cells. The data set is described as follows: Cell viability assay, G12D (AGS). It counts as cell-based, human. As to conditions: Homo sapiens, KRAS cell viability, 72 hrs, Cell Counting Kit-8. An outline of the steps: as §1
Data set [4] is described as follows: GSH reaction rates (inherent GSH reactivity). It counts as in vitro ADME. Also on record: half-life: dose or concentration left out as unconfirmed. As to conditions: for half-life: buffer, pH 7.4. How it is done:
For inherent GSH reactivity determination, compounds […] were incubated at 37° C. with and without 5 mM GSH for 0, 0.5, 1, 2, 4 and 6 h in 100 mM potassium phosphate buffer at pH 7.4. At the end of the designated time points, samples were quenched with acetonitrile containing 10 mM N-ethylmaleimide and an internal standard. Quenched samples were centrifuged, and supernatants were analyzed by LC-MS/MS for compound quantification.

The next data set has as its target KRAS G12C-BRAF complex (Homo sapiens (Human), UniProt P01116+P62937, G12C). The data set is described as follows: KRAS G12C-BRAF NanoBit assay. It counts as cell-based. The following applies: HEK293 cells, 3 hours of incubation. In short, it runs like this:
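Stable HEK293 pool co-expressing SmBit-KRAS G12C and BRAF RBD-LgBit; 10,000 cells/well incubated 3 h with compound, 16-point 3-fold dilution from 30 μM final. Live-cell Nano-Glo substrate added, luminescence read at 20 min; disruption seen as luminescence decrease vs DMSO.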

A further data set relates to SW620 (ATCC-CCL-227). The data set is described as follows: Cell viability assay, G12V (SW620). It counts as cell-based, human. As to conditions: Homo sapiens, SW-620; KRAS cell viability, SW620, 72 hrs, Cell Counting Kit-8. In short, it runs like this: as §1

Chain of KRAS G12C-BRAF complex (P01116-2 other isoform, or with tags, fused parts or gaps G12C): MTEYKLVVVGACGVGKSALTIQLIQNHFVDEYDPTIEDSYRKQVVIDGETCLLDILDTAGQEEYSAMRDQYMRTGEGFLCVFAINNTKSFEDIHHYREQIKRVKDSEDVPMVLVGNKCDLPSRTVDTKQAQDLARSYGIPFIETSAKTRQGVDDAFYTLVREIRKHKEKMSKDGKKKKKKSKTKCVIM
Chain of KRAS G12C-BRAF complex (P62937 whole entry): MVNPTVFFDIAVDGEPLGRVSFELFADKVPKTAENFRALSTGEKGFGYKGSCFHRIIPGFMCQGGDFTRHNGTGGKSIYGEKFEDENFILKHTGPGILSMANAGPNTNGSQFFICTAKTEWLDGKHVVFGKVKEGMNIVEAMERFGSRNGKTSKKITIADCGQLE

Take `CC(C)[C@@H](C(=O)N[C@H]1Cc2cc(O)cc(c2)-c2ccc3c(C(C)(C)C#N)cn(c3c2)CC(C)(C)COC(=O)[C@@H]2CCCN(N2)C1=O)N1CCC2(CN(C(=O)CCl)C2)C1=O` [RM44, reference compound]: the IC50 – broadly, the concentration that gives 50% inhibition – in data set [1] was 799 nM; in data set [3], 6230 nM; on KRAS G12C-BRAF complex it was 11700 nM; with SW620 (ATCC-CCL-227) it was greater than 10000 nM. In addition, the “Clearance Category” value in data set [2] is “medium (16.24>CL_hep (mL/min/kg)>6.96 is medium clearance)”. In addition, the “CL_hep (Human)” value in data set [2] amounted to 14.7 mL/min/kg. The “conjugation with GSH” value in data set [4] was “formed conjugation with GSH”. The half-life (commonly the time needed for the level to fall by half in the phase considered) in data set [4] is 8.9 h.

Regarding `CC(C)[C@@H](C(=O)N[C@H]1Cc2cc(O)cc(c2)-c2ccc3c(C(C)(C)C#N)cn(c3c2)CC(C)(C)COC(=O)[C@@H]2CCCN(N2)C1=O)N1CCCC2(CCN(C(=O)CCl)C2)C1=O` (some centres unmarked) [RM351, reference compound], the IC50 in data set [3] was determined as 2100 nM; at KRAS G12C-BRAF complex it was 1780 nM. In addition, the “conjugation with GSH” value in data set [4] is recorded as “formed conjugation with GSH”. The molecule also had a half-life in data set [4] of 4.3 h.

`CCn1c(-c2cc(N3CCOCC3)cnc2[C@H](C)OC)c2c3cc(c(F)cc31)-c1csc(n1)C[C@H](NC(=O)[C@H](C(C)C)N(C)C(=O)[C@H]1CCN(C(=O)[C@H](F)Cl)C1)C(=O)N1CCC[C@H](N1)C(=O)OCC(C)(C)C2` (atropisomer, axis not shown; (M)) [Example 55, (3S)-1-[(2R)-2-chloro-2-fluoro-acetyl]-N-[(1S)-1-[[(7S,13S)-21-ethyl-24-fluoro-(20M)-20-[2-[(1S)-1-methoxyethyl]-5-morpholino-3-pyridyl]-17,17-dimethyl-8,14-dioxo-15-oxa-4-thia-9,21,27,28-tetrazapentacyclo[17.5.2.1^2,5.1^9,13.0^22,26]octacosa-1(25),2,5(28),19,22(26),23-hexaen-7-yl]carbamoyl]-2-methyl-propyl]-N-methyl-pyrrolidine-3-carboxamide]: the IC50 in data set [1] is less than 3 nM; in data set [3], 848 nM; at KRAS G12C-BRAF complex it was 10 nM; in the data set on SW620 (ATCC-CCL-227) it was 155 nM.

Regarding `CO[C@@H](C)c1ncc(N2CCN(C)CC2)cc1-c1c2c3cc(c(C)cc3n1CC(F)(F)F)-c1csc(n1)C[C@H](NC(=O)[C@H](C(C)C)N(C)C(=O)C1(F)CCN(C(=O)[C@H](F)Cl)CC1)C(=O)N1CCC[C@H](N1)C(=O)OCC(C)(C)C2` (atropisomer, axis not shown; (M)) [Example 9, 1-[(2R)-2-chloro-2-fluoro-acetyl]-4-fluoro-N-[(1S)-1-[[(7S,13S)-(20M)-20-[2-[(1S)-1-methoxyethyl]-5-(4-methylpiperazin-1-yl)-3-pyridyl]-17,17,24-trimethyl-8,14-dioxo-21-(2,2,2-trifluoroethyl)-15-oxa-4-thia-9,21,27,28-tetrazapentacyclo[17.5.2.1^2,5.1^9,13.0^22,26]octacosa-1(25),2,5(28),19,22(26),23-hexaen-7-yl]carbamoyl]-2-methyl-propyl]-N-methyl-piperidine-4-carboxamide], the IC50 stood at 7 nM in data set [1], 505 nM in data set [3], 64 nM at KRAS G12C-BRAF complex and 28 nM in the data set on SW620 (ATCC-CCL-227).

`CO[C@@H](C)c1ncc(N2CCN(C)CC2)cc1-c1c2c3cc(c(F)cc3n1CC(F)(F)F)-c1csc(n1)C[C@H](NC(=O)[C@H](C(C)C)N1CCC[C@@]3(CCN(C(=O)[C@H](F)Cl)C3)C1=O)C(=O)N1CCC[C@H](N1)C(=O)OCC(C)(C)C2` (single isomer, unassigned) [Example 16]: the IC50 in data set [1] was less than 1 nM; in data set [3], 2650 nM; against KRAS G12C-BRAF complex, 8 nM; in the data set with SW620 (ATCC-CCL-227) it was 22 nM.

For `CCn1c(-c2cc(N3CCN(CC(F)(F)F)CC3)cnc2[C@H](C)OC)c2c3cc(c(F)cc31)-c1csc(n1)C[C@H](NC(=O)[C@H](C(C)C)N1CCC3(CN(C(=O)[C@H](F)Cl)C3)C1=O)C(=O)N1CCC[C@H](N1)C(=O)OCC(C)(C)C2` (atropisomer, axis not shown; (M)) [Example 37, (2S)-2-[2-[(2R)-2-chloro-2-fluoro-acetyl]-5-oxo-2,6-diazaspiro[3.4]octan-6-yl]-N-[(7S,13S)-21-ethyl-24-fluoro-(20M)-20-[2-[(1S)-1-methoxyethyl]-5-[4-(2,2,2-trifluoroethyl)piperazin-1-yl]-3-pyridyl]-17,17-dimethyl-8,14-dioxo-15-oxa-4-thia-9,21,27,28-tetrazapentacyclo[17.5.2.1^2,5.1^9,13.0^22,26]octacosa-1(25),2,5(28),19,22(26),23-hexaen-7-yl]-3-methyl-butanamide], the IC50 is less than 1 nM in data set [1], 159 nM in data set [3] and 114 nM with SW620 (ATCC-CCL-227). Moreover, in data set [2], the “Clearance Category” value is listed as “low (CL_hep (mL/min/kg)<6.96 is low clearance)”. Also, the “CL_hep (Human)” value in data set [2] is 2.4 mL/min/kg. Besides, the “T1/2(hour) in GSH” value in data set [4] (5 mM GSH, 37° C., 100 mM potassium phosphate buffer pH 7.4, up to 6 h) was “stable (If % depletion after 6 hour incubation is less than 20%, compounds were reported as stable)”. Moreover, the “Remaining at 6 hr in GSH (%)” value in data set [4] (5 mM GSH, 37° C., pH 7.4, 6 hr) stood at 100%.

In the case of `CO[C@@H](C)c1ncc(N2CCN(C)CC2)cc1-c1c2c3c(F)c(ccc3n1CC(F)(F)F)-c1csc(n1)C[C@H](NC(=O)[C@H](C(C)C)N1CCCC3(CCN(C(=O)[C@H](F)Cl)CC3)C1=O)C(=O)N1CCC[C@H](N1)C(=O)OCC(C)(C)C2` (atropisomer, axis not shown; (M)) [Example 20, (2S)-2-[9-[(2R)-2-chloro-2-fluoro-acetyl]-1-oxo-2,9-diazaspiro[5.5]undecan-2-yl]-N-[(7S,13S)-25-fluoro-(20M)-20-[2-[(1S)-1-methoxyethyl]-5-(4-methylpiperazin-1-yl)-3-pyridyl]-17,17-dimethyl-8,14-dioxo-21-(2,2,2-trifluoroethyl)-15-oxa-4-thia-9,21,27,28-tetrazapentacyclo[17.5.2.1^2,5.1^9,13.0^22,26]octacosa-1(25),2,5(28),19,22(26),23-hexaen-7-yl]-3-methyl-butanamide], the IC50 in data set [1] worked out at 3 nM; in data set [3] it was 745 nM; on KRAS G12C-BRAF complex, 47 nM; in the data set with SW620 (ATCC-CCL-227), 66 nM.
